From patent US20050197364A1, “Amide compounds as ion channel ligands and uses thereof” (priority 2003, published 2005)

Key:
[1] = target: CYP2D6 (Homo sapiens, UniProt P10635); test: Cytochrome p450 inhibition assessment, CYP2D6; assay type: in vitro ADME; details: concentration range tested, upper 100 μM
Procedure: (§1) The ability of test compounds to inhibit five major human cytochrome p450 isozymes was evaluated. Cytochrome p450 inhibition assays were performed on 96-well microtiter assay plates according to the protocols described in Gentest P450 inhibition instruction manuals. The assays were performed in duplicate at 8 concentrations with the upper concentration of 100 μM followed by a 1:3 serial dilution. Reactions were initiated by the addition of 100 μL of enzyme/substrate mix to 100 μL of cofactor/serial dilution mix, and terminated by addition of 75 μL of a 4:1 acentonitrile: 0.5 M Tris base solution or by 2N NaOH for CYP3A4/DBF. Fluorescence was measured using a fluorescence plate reader (FLUOstar model 403, BMG Lab Technologies, Durham, N.C.). For reactions with inhibition greater than 50%, IC50 values were determined by fitting the data to the Hill equation using software GraphPad Prism (Version 4.02, GraphPad Software, San Diego, Calif.).

[2] = tested on: VR1 receptor; test: High throughput calcium imaging assay (Fura2, Flex Station) of VR1 antagonists, pH 5.1 stimulus; assay type: cell-based; details: 1 uM compound; inhibition of calcium ion influx induced by capsaicin stimulation
Procedure: Therefore the functional activity of compounds at the VR1 receptor may be determined by measuring changes in intracellular calcium levels in 293 cells expressing capsaicin-insensitive VR1 receptor variants. A dual wavelength ratiometric dye, Fura2, was used as an indicator of relative levels of calcium ions in a 96 well format using a bench top scanning fluorometer with integrated fluidics and temperature control (Flex Station, Molecular Devices).
293 cells were grown on PDL coated 96-well black-walled plates, in the presence of a DMEM medium containing 5% Penstrep, 5% Glutamax, 200 ug/mL Hygromycin, 5 μg/mL Blasticide and 10% heat inactivated FBS. Prior to assay, the cells were loaded with 5 μg/mL Fura2 in normal saline solution at 37° C. for 40 minutes. Cells were then washed with normal saline to remove the dye.
The assay consists of two stages; a pre-treatment phase followed by a treatment phase.
50 μl of a compound solution was added to the cells (Pre-treatment). Immediately following, 50 μl of the test compound in a saline solution at pH 5.1 was added. Fura2 was excited at 340 and 380 nM to indicate relative calcium concentration. Changes in wavelength measurements were made throughout the course of the experiment in 4 second intervals over a period of 3 minutes. Responses were measured as peak fluorescence ratio after test compound addition minus baseline fluorescence ratio prior to pre-treatment and were calculated using SoftMaxPro softwareData were expressed as percentage inhibition calculated using Excel as follows: [formula]

[3] = tested on: capsaicin induced plasma extravasation; test: Plasma extravasation study (capsaicin applied to ear, Evans Blue); assay type: in vivo, rat; details: rats, dose of 30 mg/kg, dosed two hours before Evans Blue; FIG. 2
Procedure: The density of TRPV1 expression is enhanced during an inflammatory condition. Therefore TRPV1 antagonists have been investigated in three different models of inflammatory pain, namely plasma extravasation, paw lick assay, and thermal hyperalgesia.
Sprague-Dawley male rats obtained from Charles River, San Diego, Calif. were dosed with compound 18. Two hours later, they were injected with Evan's Blue (10 ml/kg or 150 μl). Thirty minutes after I.V. injection, 10 μl of 25 mM capsaicin in 100% ethanol was applied to the left ear of the animal, followed by 10 μl vehicle (100% EtOH) to the right ear of the […]. Fifteen minutes later, the animal was sacrificed using CO2. Each ear was removed, placed into labeled tubes and weighed. The dye was then extracted from the ears by drying the ears at 55-60° overnight. The following day, 250 μl formamide was added and left at 55-60° overnight.
An Evans blue standard curve was first generated ([…]). Samples (with ears) were spun for at least 1 minute before addition of 100 μl of each sample to appropriate wells. Samples were analyzed in a plate holder by SOFTmax PRO. Standards were graphed to generate a standard curve and then used to extrapolate Evans Blue concentrations of experimental samples.

[4] = Aqueous equilibrium solubility; assay type: physicochemical; details: room temperature
Procedure: Equilibrium solubility was measured in a pH 2.0 isotonic solution of NaCl/HCl and a pH 7.4 aqueous buffer. The pH 2.0 solution was prepared by adjusting the saline solution to a pH of 2.0 using HCl. The pH 7.4 buffer was prepared by adjusting the pH of a 0.07 M solution of NaH2PO4 to pH 7.4 with 10 N NaOH. […] At least 1 mg of powder was combined with 1 ml of buffer to make ≧1 mg/ml mixture. This sample was shaken for ≧2 hours and left to stand overnight at room temperature. The samples were then filtered through a 0.45-μm Nylon syringe filter that was first saturated with the sample. The filtrate was sampled twice, consecutively. All samples were assayed by LC/MS using electrospray ionization. The typical range of the assay is greater than 1 mg/mL to less than 0.0002 mg/mL, depending on analytical sensitivity.

[5] = target: CYP2C19 (Homo sapiens, UniProt P33261); test: Cytochrome p450 inhibition assessment, CYP2C19; assay type: in vitro ADME; details: estimated
Procedure: as §1

[6] = Plasma protein binding by equilibrium dialysis, human plasma; assay type: in vitro ADME; details: human plasma in sodium citrate, pH 7.4, 37° C., read-out: human plasma protein binding (% Bound)
Procedure: Membranes from Harvard/Amika with a molecular weight cutoff of 5,000 were rinsed with dH2O then placed in pH 7.4 PBS supplied by Gibco. The membranes were allowed to soak for 1 hour. A stock of the test article was pooled with Warfarin, Atropine at 2 mM in DMSO. The test article was then dosed into human plasma in sodium citrate, Rat Plasma, and Mouse Plasma to a final 10 μM concentration (0.5% DMSO v/v). The pre-soaked membranes were then placed into dialysis chambers. 500 μL of PBS was added to one side of the chamber, and 500 μL of the Matrix containing the test article was added to the other side of the chamber.
The chambers were then placed into an enclosed, heated rocker, which was pre-warmed to 37° C. and allowed to reach equilibrium for at least 22 hours. After 22 hours both sides were sampled. 100 μL of the donor side was added to 500 μL of PBS. 100 μL of the PBS side was added to 20 μL of fresh matrix. Samples then were crashed with 1:1 Acetonitrile and centrifuged at 10,000 RPM for 10 minutes. […]
Standards were prepared in a 1:5 plasma:PBS mixture at 5, 1.5, 0.5, 0.15, 0.05, 0.015 and 0.005 μM concentrations. […] Protein binding values were calculated as follows: % Bound=[(Concentration in Donor−Concentration in Receiver)/(Concentration in Donor)]×100. % Recovery=[(Concentration in donor+Concentration in Receiver)]/(Concentration in Normal Initial)]×100

[7] = target: T1, VR1 receptor (Rattus norvegicus, UniProt O35433); test: Whole-cell patch clamp electrophysiology, capsaicin induced current in DRG neurons; assay type: cell-based
T1 construct: Dorsal root ganglion (DRG) neurons were recovered from either neonatal or adult rats; endogenous in cells; host or cells: primary rat dorsal root ganglion neurons
Procedure: Dorsal root ganglion (DRG) neurons were recovered from either neonatal or adult rats and plated onto poly-D-lysine coated glass coverslips. The plated neurons were transferred into a chamber to allow drug solutions to be added to the cells using a computer-controlled solenoid-valve based perfusion system. The cells were imaged using standard DIC optics. Cells were patched using finely-pulled glass electrodes. Voltage-clamp electrophysiology experiments were carried out using an Axon Instruments Multiclamp amplified controlled by pCLAMP8 software.
The cells were placed into a whole-cell voltage clamp and help at a voltage of −80 mV while monitoring the membrane current in gap-free recording mode. 500 nM capsaicin was added for 30 seconds as a control. Test compounds at various concentrations at ranging from (10-1000 nM) were added to the cells for 1 minute prior to a 30 second capsaicin application. Differences between control experiments and drug positive capsaicin experiments were used to determine the efficacy of each test compound. All compounds that inhibited capsaicin induced current greater than 50% were considered positives.

[8] = target: CYP3A4 (Homo sapiens, UniProt P08684); test: Cytochrome p450 inhibition assessment, CYP3A4; assay type: in vitro ADME; details: concentration range tested, upper 100 μM
Procedure: as §1

T1 sequence (O35433 whole entry): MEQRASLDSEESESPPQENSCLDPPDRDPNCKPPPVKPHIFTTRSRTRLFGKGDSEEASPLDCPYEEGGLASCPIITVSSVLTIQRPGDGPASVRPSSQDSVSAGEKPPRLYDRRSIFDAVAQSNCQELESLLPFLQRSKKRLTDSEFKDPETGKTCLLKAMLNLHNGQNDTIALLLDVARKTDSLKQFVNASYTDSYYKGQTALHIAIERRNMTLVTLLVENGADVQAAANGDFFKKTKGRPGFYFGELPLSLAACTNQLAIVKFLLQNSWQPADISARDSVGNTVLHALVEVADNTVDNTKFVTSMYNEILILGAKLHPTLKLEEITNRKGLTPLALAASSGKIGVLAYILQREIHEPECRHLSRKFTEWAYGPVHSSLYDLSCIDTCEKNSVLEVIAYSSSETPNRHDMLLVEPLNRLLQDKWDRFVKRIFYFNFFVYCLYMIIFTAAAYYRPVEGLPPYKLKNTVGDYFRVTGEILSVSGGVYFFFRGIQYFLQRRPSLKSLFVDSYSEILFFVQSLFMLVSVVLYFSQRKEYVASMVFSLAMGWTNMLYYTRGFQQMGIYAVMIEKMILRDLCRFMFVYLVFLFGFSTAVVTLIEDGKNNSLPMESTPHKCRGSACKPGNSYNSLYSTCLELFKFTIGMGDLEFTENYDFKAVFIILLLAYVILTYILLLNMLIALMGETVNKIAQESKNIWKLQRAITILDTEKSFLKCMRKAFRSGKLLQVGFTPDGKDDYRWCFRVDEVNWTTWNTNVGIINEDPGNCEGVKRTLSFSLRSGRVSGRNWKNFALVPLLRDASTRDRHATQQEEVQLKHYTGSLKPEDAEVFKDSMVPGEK
Chain of CYP3A4 (P08684 whole entry): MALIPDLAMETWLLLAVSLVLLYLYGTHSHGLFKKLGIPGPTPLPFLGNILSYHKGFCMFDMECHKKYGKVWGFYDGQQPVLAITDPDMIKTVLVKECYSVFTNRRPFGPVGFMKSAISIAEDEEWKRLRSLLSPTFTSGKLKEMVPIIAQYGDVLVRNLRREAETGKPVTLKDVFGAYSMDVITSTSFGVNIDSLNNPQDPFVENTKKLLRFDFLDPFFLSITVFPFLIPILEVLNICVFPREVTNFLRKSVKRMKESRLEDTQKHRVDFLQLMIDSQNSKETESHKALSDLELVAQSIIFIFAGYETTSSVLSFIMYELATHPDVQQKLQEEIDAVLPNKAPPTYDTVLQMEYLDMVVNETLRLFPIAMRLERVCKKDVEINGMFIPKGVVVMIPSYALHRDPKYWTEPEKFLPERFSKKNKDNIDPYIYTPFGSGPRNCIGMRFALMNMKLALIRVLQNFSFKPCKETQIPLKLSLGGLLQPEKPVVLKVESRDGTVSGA
Chain of CYP2C19 (P33261 whole entry): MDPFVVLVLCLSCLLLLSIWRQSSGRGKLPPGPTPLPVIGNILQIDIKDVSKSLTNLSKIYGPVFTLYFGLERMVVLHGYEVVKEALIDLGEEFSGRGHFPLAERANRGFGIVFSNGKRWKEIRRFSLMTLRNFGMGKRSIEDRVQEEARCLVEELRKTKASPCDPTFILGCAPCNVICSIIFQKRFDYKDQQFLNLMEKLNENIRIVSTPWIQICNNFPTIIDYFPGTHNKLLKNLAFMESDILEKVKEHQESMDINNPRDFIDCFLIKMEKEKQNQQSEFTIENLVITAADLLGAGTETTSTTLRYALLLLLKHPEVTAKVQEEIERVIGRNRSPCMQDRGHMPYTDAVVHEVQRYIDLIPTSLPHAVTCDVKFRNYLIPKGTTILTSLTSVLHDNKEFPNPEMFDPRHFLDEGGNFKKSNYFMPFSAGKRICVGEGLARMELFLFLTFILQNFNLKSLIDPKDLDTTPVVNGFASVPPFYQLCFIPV
Chain of CYP2D6 (P10635 whole entry): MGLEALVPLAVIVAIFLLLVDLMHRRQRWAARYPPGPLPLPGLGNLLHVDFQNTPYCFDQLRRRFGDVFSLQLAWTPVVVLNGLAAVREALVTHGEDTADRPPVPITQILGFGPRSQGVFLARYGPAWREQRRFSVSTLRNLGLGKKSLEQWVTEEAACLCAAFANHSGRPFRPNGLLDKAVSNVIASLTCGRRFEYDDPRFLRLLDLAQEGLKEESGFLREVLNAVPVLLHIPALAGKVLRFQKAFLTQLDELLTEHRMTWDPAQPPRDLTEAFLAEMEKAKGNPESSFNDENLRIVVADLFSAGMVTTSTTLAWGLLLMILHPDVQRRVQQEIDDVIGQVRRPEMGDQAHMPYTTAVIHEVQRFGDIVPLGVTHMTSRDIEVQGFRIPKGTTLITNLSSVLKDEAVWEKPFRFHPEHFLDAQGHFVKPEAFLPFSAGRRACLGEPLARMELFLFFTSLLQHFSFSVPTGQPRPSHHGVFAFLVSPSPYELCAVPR

In the case of `O=C(Nc1ccc(C(F)(F)F)cc1)c1ccc(-c2ncccc2Cl)cc1` [Compound 18, 4-(3-Chloropyridin-2-yl)-N-(4-trifluoromethyl-phenyl)benzamide], the “inhibition of CYP2D6 activity” value [1] is reported as “did not significantly inhibit”, the “% Inhibition @ 1 uM” value [2] is reported as “+ + + + (compound exhibited 75% or greater inhibition of calcium ion influx induced by capsaicin stimulation)” and the “capsaicin induced plasma extravasation” value [3] is reported as “significantly blocks”. For the same compound, the solubility thermodynamic ([4]; pH 2.0 isotonic NaCl/HCl solution, simulated gastric fluid, thermodynamic from solid, pH 2.0 isotonic NaCl/HCl) was < 0.2 µg/mL, the equilibrium solubility ([4]; pH 7.4 aqueous buffer) was “low solubility” and the IC50 [5] was 26.9 µM. For the same compound, the fraction unbound at 22 h, 10 µM [6] was < 0.002, the “dose response of inhibiting a capsaicin induced calcium ion influx (FIG. 3)” value ([7]; 50 nM, 100 nM and 250 nM) was “increasing effectiveness” and the inhibition at 0.1 µM ([7]; DRG neuron, 100 nM compound, treatment time 20 seconds, 500 nM capsaicin, rat DRG neurons, -80 mV) was < 75%. For the same compound, the “inhibition of CYP3A4 activity” value [8] was “did not significantly inhibit”.
